The target of one assay is T1, CHOK1-α5KO-mαvβ1 cells (Mus musculus, UniProt P09055+P43406).
T1 construct: expressed in transfected cells; host or cells: CHOK1 with endogenous hamster α5 deleted by CRISPR
The assay can be described thus: Cell adhesion assay (Epic) on fibronectin. Format: cell-based. The settings on record: in words. The method, then: For plate preparation, Epic 384-well assay plates (Corning #5040) were washed with OptiMEM (Gibco #31985-070) and coated with murine fibronectin (Abcam #ab92784) at a concentration of 0.1 μg/well for CHO-a5KO-mαvβ1 cells; murine vitronectin (Abcam #ab92727) at 0.075 μg/well for CHO-mαvβ3 cells; or murine vitronectin at 0.125 μg/well for CHO-mαvβ5 (all at a volume of 25 μl/well in OptiMEM), for 1 h. Coating solution was then removed by flicking and plates were washed with OptiMEM and blocked with 25 μl/well of assay buffer [1% Ovalbumin (Sigma #A5503-10G) in OptiMEM containing 1X Pen-Strep (Gibco #15140-148)]. A 5-min baseline reading was taken on a Corning Epic Plate Reader (Model: Epic BT-157900) before removing the assay buffer and adding cells pre-incubated with inhibitors. The Epic plate reader detects cellular mass redistribution (adhesion) on the plate surface as a picometer wavelength shift over time. […] Cells were incubated with the inhibitors for 1 h at RT with gentle rocking, after which 50 μL per well was transferred to the Epic assay plate, and a time course of cell adhesion was monitored for an additional 3 h.

A further assay addresses human αvβ8 (Homo sapiens, UniProt P06756+P26012). The assay can be described thus: AlphaLISA integrin-ligand binding assay. In kind it is biochemical. On the set-up: hαV 1 992; hβ8 1 684; made in house; host or cells: Expi293. The method, then: In the AlphaLISA integrin assays, we used a HEPES based buffer (25 mM HEPES pH 7.4, 137 mM NaCl, 1 mM MgCl2, 1 mM MnCl2, 2 mM CaCl2, 2.7 mM KCl, and 0.05% Tween-20). Optimal assay conditions were determined with a titration of the reagents for signal noise ratio (S/N), linear range, etc. For the respective integrins, we used the final concentrations described in Supplemental Table S3. Briefly, the testing antibody (8 μL) was added as a 4x (of Final testing concentration) solution in the HEPES buffer described previously into a 384w AlphaPlate (Perkin Elmer #6005350). Then the integrin and ligand were added sequentially as 8x (4 μL each). Plates were sealed and incubated at room temperature for 2 h. Then 4 × acceptor bead solution (8 μL) was added, and the plates were resealed and incubated at RT for 1 h. Finally, 4 × (8 μL) donor beads solution was added in a darkened room and incubated for 45 min at room temperature. Plates were read on the Envision (Perkin Elmer) in AlphaScreen mode within 3 h of donor bead addition.
Supplemental Table S3. integrin AlphaLIS A assay reagents and conditions Human A l phal i sa Inte gri n A ssays: Fi nal Condi ti ons […]
( batch de pe nde nt) anti body A l phaLi sa A cce ptor havb1 1. 4 nM 1. 0 nMα - Fi brone cti n human Fi brone cti n n/a A cce ptor be ads/ Pe rki n 10. 0 ug/ m 10. 0 ug/ m […]
havb3 3. 0 nM 10. […]

The target in the next assay is T2, mouse αvβ6 (Mus musculus, UniProt P43406+Q9Z0T9).
T2 construct: expressed in transfected cells
The assay can be described thus: Latent TGFβ activation assay (TMLC / CHOK1-integrin co-culture, PAI-1 luciferase). In kind it is cell-based. The settings on record: in words. As for the experimental part: Transfected mink lung epithelial cell (TMLC) cell line containing the TGFβ responsive PAI-1 promoter driving luciferase expression[29] and the CHO-K1 human and mouse αvβx integrin cell lines were grown under optimized growth conditions to 90% confluency. TMLC cells were trypsinized and plated at 25,000 cells/well in 50 μL in Costar clear bottom white walled plates. In a separate plate, 25 μL of serially diluted antibodies at 4X concentration were added to wells containing 25 μL of either 25,000 cells of human or mouse αvβx cells. After a brief mixing, the 50 μL mixture was transferred to the TMLC cell plates for a total volume of 100 μL and incubated at 37 °C for 16 h. 100 μL of ONE-Glo kit (#PRE6120) was added to each well and read after 3–5 min on the Envision plate reader.

This is an account of results in PMC7822819, “Discovery of a new class of integrin antibodies for fibrosis” (Scientific Reports, 2021).

Where two headings read alike, the source gives them in different places.

human αvβ8, sequence (P06756 31-992): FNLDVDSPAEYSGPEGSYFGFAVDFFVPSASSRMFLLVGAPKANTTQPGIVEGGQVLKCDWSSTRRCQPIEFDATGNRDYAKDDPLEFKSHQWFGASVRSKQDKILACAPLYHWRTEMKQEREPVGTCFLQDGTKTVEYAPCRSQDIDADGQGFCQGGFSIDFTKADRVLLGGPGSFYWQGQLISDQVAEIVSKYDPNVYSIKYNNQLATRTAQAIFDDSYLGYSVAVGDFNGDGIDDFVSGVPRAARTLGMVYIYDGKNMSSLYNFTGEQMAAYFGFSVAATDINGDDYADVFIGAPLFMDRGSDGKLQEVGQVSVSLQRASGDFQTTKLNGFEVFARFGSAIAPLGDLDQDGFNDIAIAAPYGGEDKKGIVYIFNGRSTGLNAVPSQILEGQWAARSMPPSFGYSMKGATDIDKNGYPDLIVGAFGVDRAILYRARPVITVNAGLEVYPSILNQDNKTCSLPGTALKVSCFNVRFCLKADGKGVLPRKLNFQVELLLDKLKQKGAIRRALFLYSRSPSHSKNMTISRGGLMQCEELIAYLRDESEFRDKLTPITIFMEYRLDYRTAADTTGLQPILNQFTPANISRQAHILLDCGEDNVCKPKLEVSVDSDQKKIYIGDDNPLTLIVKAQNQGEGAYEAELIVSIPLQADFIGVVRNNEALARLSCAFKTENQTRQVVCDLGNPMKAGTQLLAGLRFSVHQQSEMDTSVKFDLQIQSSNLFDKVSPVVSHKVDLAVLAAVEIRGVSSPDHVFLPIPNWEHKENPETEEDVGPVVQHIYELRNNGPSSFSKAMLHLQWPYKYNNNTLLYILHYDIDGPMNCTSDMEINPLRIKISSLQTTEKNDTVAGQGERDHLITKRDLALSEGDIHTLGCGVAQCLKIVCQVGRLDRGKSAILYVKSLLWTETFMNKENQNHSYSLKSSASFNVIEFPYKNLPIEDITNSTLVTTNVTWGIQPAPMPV
human αvβ8, sequence (P26012 43-684): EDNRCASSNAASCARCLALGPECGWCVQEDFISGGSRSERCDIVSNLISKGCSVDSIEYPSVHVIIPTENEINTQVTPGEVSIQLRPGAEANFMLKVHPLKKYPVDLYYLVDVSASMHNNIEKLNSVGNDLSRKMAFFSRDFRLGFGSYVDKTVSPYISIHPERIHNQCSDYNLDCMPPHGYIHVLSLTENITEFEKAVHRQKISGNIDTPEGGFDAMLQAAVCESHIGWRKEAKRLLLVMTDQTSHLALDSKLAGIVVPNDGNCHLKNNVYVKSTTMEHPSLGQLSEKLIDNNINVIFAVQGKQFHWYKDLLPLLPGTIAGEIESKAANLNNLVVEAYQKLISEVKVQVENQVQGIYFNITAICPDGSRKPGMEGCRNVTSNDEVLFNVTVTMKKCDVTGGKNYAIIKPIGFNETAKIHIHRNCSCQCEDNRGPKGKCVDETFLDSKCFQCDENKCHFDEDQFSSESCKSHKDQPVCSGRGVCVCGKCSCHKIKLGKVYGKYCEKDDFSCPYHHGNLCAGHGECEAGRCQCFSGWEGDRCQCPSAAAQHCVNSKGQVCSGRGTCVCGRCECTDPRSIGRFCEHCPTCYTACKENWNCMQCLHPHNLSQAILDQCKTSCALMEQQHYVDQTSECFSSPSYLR
T2 sequence (P43406 31-1044): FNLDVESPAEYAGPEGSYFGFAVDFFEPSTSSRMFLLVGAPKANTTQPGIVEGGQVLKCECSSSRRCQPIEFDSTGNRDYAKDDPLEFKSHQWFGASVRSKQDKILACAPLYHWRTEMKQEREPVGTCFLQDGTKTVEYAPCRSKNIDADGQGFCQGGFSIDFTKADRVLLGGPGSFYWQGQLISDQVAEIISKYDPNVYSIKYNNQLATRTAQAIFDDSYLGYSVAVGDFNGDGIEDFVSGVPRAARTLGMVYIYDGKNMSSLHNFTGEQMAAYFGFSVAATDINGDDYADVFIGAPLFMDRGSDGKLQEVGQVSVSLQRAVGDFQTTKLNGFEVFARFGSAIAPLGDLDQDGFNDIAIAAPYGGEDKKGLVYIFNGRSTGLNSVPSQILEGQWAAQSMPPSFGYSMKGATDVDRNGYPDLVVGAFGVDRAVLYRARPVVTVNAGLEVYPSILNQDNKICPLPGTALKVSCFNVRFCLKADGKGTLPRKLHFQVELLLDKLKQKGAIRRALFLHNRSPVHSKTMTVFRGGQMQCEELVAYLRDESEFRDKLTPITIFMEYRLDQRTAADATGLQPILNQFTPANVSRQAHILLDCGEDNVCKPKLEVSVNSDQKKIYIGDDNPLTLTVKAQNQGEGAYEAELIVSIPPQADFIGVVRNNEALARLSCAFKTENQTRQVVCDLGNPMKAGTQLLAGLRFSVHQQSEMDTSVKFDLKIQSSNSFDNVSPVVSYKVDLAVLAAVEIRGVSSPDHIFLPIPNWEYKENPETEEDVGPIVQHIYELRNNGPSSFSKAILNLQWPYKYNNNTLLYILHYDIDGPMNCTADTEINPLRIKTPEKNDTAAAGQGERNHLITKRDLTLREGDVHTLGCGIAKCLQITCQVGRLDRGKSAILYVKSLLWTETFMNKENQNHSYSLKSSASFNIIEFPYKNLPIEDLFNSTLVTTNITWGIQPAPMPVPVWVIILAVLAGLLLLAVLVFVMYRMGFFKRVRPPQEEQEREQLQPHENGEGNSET
T2 sequence (Q9Z0T9 22-787): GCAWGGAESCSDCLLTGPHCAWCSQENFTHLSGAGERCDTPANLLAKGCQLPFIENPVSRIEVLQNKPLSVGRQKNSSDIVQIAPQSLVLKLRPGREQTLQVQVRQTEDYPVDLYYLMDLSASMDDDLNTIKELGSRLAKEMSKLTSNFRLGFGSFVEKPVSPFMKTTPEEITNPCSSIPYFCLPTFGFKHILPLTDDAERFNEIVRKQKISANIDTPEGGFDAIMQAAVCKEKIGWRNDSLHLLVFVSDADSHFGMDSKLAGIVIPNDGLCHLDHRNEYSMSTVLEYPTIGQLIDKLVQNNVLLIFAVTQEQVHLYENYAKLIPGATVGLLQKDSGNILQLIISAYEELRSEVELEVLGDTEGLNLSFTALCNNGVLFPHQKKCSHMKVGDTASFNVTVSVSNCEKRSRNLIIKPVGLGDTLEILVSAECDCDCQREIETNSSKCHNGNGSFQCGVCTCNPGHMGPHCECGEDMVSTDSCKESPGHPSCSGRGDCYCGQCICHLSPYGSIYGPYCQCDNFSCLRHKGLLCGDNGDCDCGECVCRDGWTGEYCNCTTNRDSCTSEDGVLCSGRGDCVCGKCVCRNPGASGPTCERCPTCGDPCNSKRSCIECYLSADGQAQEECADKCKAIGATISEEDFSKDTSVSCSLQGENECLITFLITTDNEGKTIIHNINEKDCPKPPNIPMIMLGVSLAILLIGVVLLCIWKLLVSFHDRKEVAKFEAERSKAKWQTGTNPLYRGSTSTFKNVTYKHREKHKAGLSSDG
T1 sequence (P43406 31-1044): as the sequence (P43406 31-1044) above
T1 sequence (P09055 21-798): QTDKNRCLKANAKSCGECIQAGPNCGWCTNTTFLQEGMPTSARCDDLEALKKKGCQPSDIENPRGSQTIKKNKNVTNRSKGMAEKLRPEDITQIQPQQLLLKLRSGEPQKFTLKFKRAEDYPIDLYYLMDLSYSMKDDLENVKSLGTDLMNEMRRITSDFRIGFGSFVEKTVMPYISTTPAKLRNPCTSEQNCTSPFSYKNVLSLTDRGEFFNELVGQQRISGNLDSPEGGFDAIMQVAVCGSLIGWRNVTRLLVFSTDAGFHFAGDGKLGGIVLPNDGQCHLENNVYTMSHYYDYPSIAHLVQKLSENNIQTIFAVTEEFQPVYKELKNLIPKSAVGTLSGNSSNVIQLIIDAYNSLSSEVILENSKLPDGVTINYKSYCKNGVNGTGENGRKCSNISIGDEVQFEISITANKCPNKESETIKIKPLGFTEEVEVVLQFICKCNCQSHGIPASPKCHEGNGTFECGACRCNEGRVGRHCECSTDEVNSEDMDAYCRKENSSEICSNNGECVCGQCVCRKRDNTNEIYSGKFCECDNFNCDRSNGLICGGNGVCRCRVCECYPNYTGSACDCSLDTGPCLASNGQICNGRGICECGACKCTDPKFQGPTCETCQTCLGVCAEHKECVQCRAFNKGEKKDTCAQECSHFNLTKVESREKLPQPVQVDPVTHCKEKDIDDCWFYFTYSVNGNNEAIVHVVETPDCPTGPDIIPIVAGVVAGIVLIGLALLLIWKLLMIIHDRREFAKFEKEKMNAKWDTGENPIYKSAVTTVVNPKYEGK

Consider `COc1ccc(C(CC(=O)O)N2CCN(CCCc3ccc4c(n3)NCCC4)C2=O)cn1` (stereo not shown) [MK-0429], for which the “Effect on cell adhesion, mouse αvβ1-expressing CHOK1-α5KO cells” value at CHOK1-α5KO-mαvβ1 cells was “potently reduced”. In addition, the IC50 turned out to be 58.3 nM at human αvβ8 (Fig. 3D, assay optimisation, read-out: IC50 human αvβ8 AlphaLISA) and 3.1 nM at human αvβ8 (Fig. 4B, read-out: IC50 Human integrin AlphaLISA assays: hαvβ8). Also, on mouse αvβ6, the “Inhibition of latent TGFβ activation, mouse αvβ6 co-culture” value is on record as “strong inhibitory effect”.

The term IC50 denotes the concentration at which inhibition is half-maximal.
